{
  "source": "paper PMC7083937",
  "about": "“The ribosome-associated complex RAC serves in a relay that directs nascent chains to Ssb” (Nature Communications, 2020)",
  "key": {"ribosomes": {"tested_on": "ribosomes", "test": "ribosome-binding assay", "set-up": "species or system Saccharomyces cerevisiae", "conditions": "for fraction of Ssb ribosome-bound: total cell extract", "experimental": "Yeast strains were grown to early log phase on YPD, prior to harvest cycloheximide was added to a final concentration of 100 µg/ml, and subsequently cells were collected via centrifugation at 5000 g. Cell pellets were resuspended in ribosome-binding buffer (20 mM Hepes/KOH pH 7.4, 2 mM Mg(OAc)2, 120 mM KOAc, 100 µg/ml cycloheximide, 2 mM DTT, 1 mM PMSF, protease inhibitor mix) and total cell extracts were prepared by the glass beads method. After a clearing spin at 20.000 g, each 60 µl of the total glass beads extract (A260 between 80 and 100 mAU) was loaded onto a 90 µl sucrose cushion (25% sucrose, 20 mM Hepes/KOH pH 7.4, 120 mM KOAc, 2 mM Mg(OAc)2, 2 mM DTT, 1 mM PMSF, protease inhibitor mix). After centrifugation at 400.000 g at 4 °C for 25 min the cytosolic supernatant was collected and the ribosomal pellet was resuspended in 300 µl ribosome-binding buffer. Aliquots of the total cell extract, cytosolic supernatant, and resuspended ribosomal pellets were precipitated by addition of TCA (trichloroacetic acid) to a final concentration of 5%. TCA pellets were dissolved in SDS-sample buffer and were analyzed on 10% Tris-Tricine gels followed by immunoblotting."}, "nascent Pgk1-100": {"tested_on": "nascent Pgk1-100", "test": "crosslinking to ribosome-bound nascent chain", "assay_type": "binding, Saccharomyces cerevisiae", "conditions": "BS3", "from_the_text": "(§1) DNA templates for transcription reactions were generated by PCR using pSPUTK-Pgk1[20] as a template. Reverse primers were designed such, that PCR products encoded different length PGK1 sequences, which all lacked a stop codon. The length of the resulting translation products, which remain ribosome-bound, is indicated in Results and Figure Legends. Transcripts were generated using SP6 polymerase (Thermo Fischer Scientific) as previously described. RNCs were generated via translation reactions primed with the stop codon-less transcripts at 20 °C in the presence of [^35S]-methionine (Hartmann-Analytic) for 80 min[20],[54]. Translation reactions were stopped by the addition of 50 µg/ml cycloheximide final concentration and subsequently RNCs were isolated via centrifugation at 400.000 g for 20 min in a TLA-100 or TLA-100.2 rotor (Beckman Coulter)[20].\n(§2) Chemical crosslinking of ribosome-bound nascent chains to Ssb, Zuo1, or Ssz1 was analyzed essentially as described. In brief, resuspended RNCs were incubated in the presence of 400 µM BS^3 (bis-(sulfosuccinimidyl)-suberate, spacer length 1.14 nm, Thermo Scientific) for 20 min on ice and crosslinking was then quenched by the addition of TRIS base (tris(hydroxymethyl)aminomethane) to a final concentration of 50 mM. Crosslinked protein samples were precipitated by the addition of TCA (final concentration 5%), pellets were collected by centrifugation and were dissolved in dissociation buffer (200 mM TRIS/HCl pH 7.5, 4% SDS; 10 mM EDTA, 100 µg/ml BSA, protease inhibitor mix, 1 mM PMSF). Totals shown in Figs. 1,3 and Supplementary Fig. 1 before (total) and after BS^3 crosslinking (total + BS^3) represent 5% of the dissolved material employed for immunoprecipitation reactions. The resulting denatured protein samples were used to identify crosslink products between Ssb, Zuo1, or Ssz1 and nascent chains via affinity purification under denaturing conditions. To that end, protein A sepharose beads (GE Healthcare) were pre-coated with antibodies directed against Ssb, Zuo1, or Ssz1 and subsequently the denatured crosslinked material was allowed to bind to the beads resuspended in immunoprecipitation buffer (10 mM TRIS/HCl pH 7.5, 150 mM NaCl, 5 mM EDTA, 1% Triton X-100, protease inhibitor mix, 0.5 mM PMSF)[20]. Crosslink products bound to protein A sepharose beads were released by addition of SDS-sample buffer at 95 °C for 10 min. Samples were analyzed on Tris-Tricine gels[56] followed by autoradiography. Loading was normalized according to the signal of [^35S]-labelled nascent Pgk1 in the total prior to crosslinking. Relative crosslinking efficiencies between nascent Pgk1-100 and Zuo1 or Ssz1, respectively were determined as follows. For each biological replicate, band intensities of non-crosslinked nascent Pgk1-100 and of Pgk1-100 crosslink products (XL-Zuo1 or XL-Ssz1) was determined on a single autoradiograph for wild type RAC and the different mutant variants of RAC. The crosslinking efficiency (XL-Zuo1/Pgk1-100 or XL-Ssz1/Pgk1-100) of each sample was calculated and subsequently the ratio of XL-Zuo1/Pgk1-100 or XL-Ssz1/Pgk1-100 in the presence of wild type RAC was set to 1 in order to normalize the biological replicates (see Fig. 3c,d). The original data are provided as a Source Data file.\nFor complementation experiments translation reactions were performed in either ∆ssb1∆ssb2 or ∆ssb1∆ssb2∆zuo1∆ssz1 translation extract as indicated. Complementation with purified Ssb1 was performed by adding His6-tagged ScSsb1 at a final concentration of 2 µM to the translation reaction prior to the addition of mRNA. Ribosome-free cytosolic extract of various mutant yeast strains for complementation experiments as indicated in Results and Figure Legends was generated as follows. The A260 of a total cell extract prepared by the glass beads method (see above) was determined, and the total cell extract was subsequently adjusted to a final concentration of 800 mM KOAc. […]"}, "nascent Pgk1-150": {"tested_on": "nascent Pgk1-150", "test": "crosslinking to ribosome-bound nascent chain", "assay_type": "binding, Saccharomyces cerevisiae", "conditions": "wild type translation extract; BS3; compared with Pgk1-50", "from_the_text": "as §1, §2"}, "nascent Pgk1-45": {"tested_on": "nascent Pgk1-45", "test": "crosslinking to ribosome-bound nascent chain", "assay_type": "binding, Saccharomyces cerevisiae", "conditions": "wild type translation extract; BS3", "from_the_text": "as §1, §2"}, "nascent Pgk1-50": {"tested_on": "nascent Pgk1-50", "test": "crosslinking to ribosome-bound nascent chain", "assay_type": "binding, Saccharomyces cerevisiae", "conditions": "wild type translation extract; BS3", "from_the_text": "as §1, §2"}, "nascent Pgk1-40": {"tested_on": "nascent Pgk1-40", "test": "crosslinking to ribosome-bound nascent chain", "assay_type": "binding, Saccharomyces cerevisiae", "conditions": "wild type translation extract; BS3", "from_the_text": "as §1, §2"}, "[1]": {"conditions": "Δssb1Δssb2 extract, purified Ssb1, 2 µM, added prior to translation"}},
  "data": [
    {"substance": "Ssb: ribosome-associated Hsp70 homolog of yeast, isoforms SSB1 and SSB2", "values": [
      {"measurement": "ribosome-binding of Ssb when RAC or Ssz1 is absent from ribosomes, reduced to", "setting": "ribosomes; in vitro translation system, Zuo1ΔN49, no Ssz1, or no Ssz1 and Zuo1", "result": "about 1/3"},
      {"measurement": "fraction of Ssb ribosome-bound", "setting": "ribosomes; cells expressing RAC-∆N49", "result": "about 1/ 3"},
      {"measurement": "fraction of Ssb ribosome-bound", "setting": "ribosomes; wild type, RAC-∆N8, or RAC-∆N16", "result": "About 2/3"},
      {"measurement": "crosslinking of Ssb to nascent Pgk1 when RAC or Ssz1 is absent from ribosomes, reduced to", "setting": "nascent Pgk1-100; Fig. 1e set-up", "result": "< 1/6"},
      {"measurement": "crosslink to nascent Pgk1-100", "setting": "nascent Pgk1-100; wild type translation extract, compared with Pgk1-50", "result": "more efficient crosslinks"},
      {"measurement": "crosslink of Ssb to nascent Pgk1-100 upon adding purified Ssb", "setting": "nascent Pgk1-100; [1]", "result": "restored"},
      {"measurement": "effect of added purified Ssb on crosslinking to the RAC subunits", "setting": "nascent Pgk1-100; [1]", "result": "strongly reduced"},
      {"measurement": "crosslink of Ssb to nascent Pgk1-100, dependence on RAC", "setting": "nascent Pgk1-100; Δzuo1Δssz1Δssb1Δssb2 RNCs complemented with ribosome-free extracts", "result": "Only in the presence of wild type RAC nascent Pgk1-100 formed an efficient crosslink to Ssb"},
      {"measurement": "crosslink to nascent Pgk1-150", "setting": "nascent Pgk1-150", "result": "more efficient crosslinks"},
      {"measurement": "crosslink to nascent Pgk1-45", "setting": "nascent Pgk1-45", "result": "did not form crosslink products with Pgk1-40 or Pgk1-45"},
      {"measurement": "crosslink to nascent Pgk1-50", "setting": "nascent Pgk1-50", "result": "weak crosslink"},
      {"measurement": "crosslink to nascent Pgk1-40", "setting": "nascent Pgk1-40", "result": "did not form crosslink products with Pgk1-40 or Pgk1-45"}
    ]}
  ]
}
